Measured values taken from publication PMC5438822, “Pharmacokinetics and safety of carfilzomib in patients with relapsed multiple myeloma and end-stage renal disease (ESRD): an open-label, single-arm, phase I study” (Cancer Chemotherapy and Pharmacology, 2017).
Read-outs that look alike come from different tables or passages of the source.

Legend:
[1] = Plasma pharmacokinetics of carfilzomib and its major metabolites after 30-min IV infusion, normal renal function vs ESRD; type: in vivo, human; conditions: for AUC0−inf Geo mean ratio (90% CI), ESRD vs normal renal function / AUC0−last Geo mean ratio (90% CI), ESRD vs normal renal function: ANOVA of ln-transformed data, ESRD test, normal reference
Experimental: (§1) This was a phase I, multicenter (13 sites in US, Canada, and Australia), open-label, nonrandomized, comparative PK study of carfilzomib in patients with multiple myeloma and normal renal function or ESRD on hemodialysis (NCT01949532). The primary objective was to assess the influence of ESRD on AUC, from time 0 to the last concentration measured (AUC0−last) and from time 0 extrapolated to infinity (AUC0−inf) of carfilzomib 56 mg/m^2 at cycle 2 day 1 in patients with relapsed multiple myeloma. Secondary objectives were to compare between patient cohorts additional PK parameters of carfilzomib at cycle 2 day 1, including C max, time to maximum concentration (t max), clearance, terminal half-life (t 1/2), volume of distribution at steady state, and mean residence time; compare between patient cohorts PK parameters of carfilzomib 27 mg/m^2 at cycle 1 day 16; evaluate PK parameters for carfilzomib’s major metabolites (PR-389/M14, PR-413/M15, and PR-519/M16) to help characterize metabolism and elimination profile of carfilzomib; and evaluate the safety and tolerability of carfilzomib. Exploratory objectives included evaluation of ORR (defined as PR or better) and clinical benefit rate [CBR; defined as ORR + minimal response (MR)], and estimation of duration of response (DOR) and PFS.
(§2) Patients received IV carfilzomib (as a 30-min infusion) in 28-day cycles (Fig. 1). All received carfilzomib 20 mg/m^2 on days 1 and 2 of cycle 1 and escalated to 27 mg/m^2 on day 8, 9, 15, and 16 of cycle 1. If tolerated, carfilzomib dose was increased to 56 mg/m^2 starting on day 1 of cycle 2 and continued on the same schedule (day 1, 2, 8, 9, 15, and 16 of each cycle). Oral or IV dexamethasone 8 mg/day was given on the same days as carfilzomib during cycles 1 and 2 but was optional in cycles 3 and beyond. IV hydration was given immediately prior to and following carfilzomib dosing during cycle 1 and at the investigator’s discretion in cycle 2 and higher; hydration consisted of 250 to 500 mL IV normal saline or other appropriate IV fluid.
(§3) Blood samples were collected for PK assessments for carfilzomib and its major metabolites (metabolites PR-389/M14, PR-413/M15, and PR-519/M16) (Fig. 1). Samples were collected at the following timepoints on cycle 1 day 16 (27 mg/m^2 dose) and cycle 2 day 1 (56 mg/m^2 dose) or on subsequent infusion days when the intended dose levels were administered: before infusion; 15 min after start of infusion; within 2 min before the end of infusion; and at 5, 15, and 30 min (±2 min for all timepoints ≤30 min), and 1, 2, and 4 h (±5 min for all timepoints >30 min) after the end of the infusion. Safety was assessed throughout the study and included the monitoring of AEs, clinical laboratory evaluations, electrocardiograms, and vital signs. Each evaluable patient’s response to treatment or progression over the course of the study was evaluated by the investigator according to the International Myeloma Working Group, International Uniform Response Criteria for Multiple Myeloma and European Group for Blood and Marrow Transplantation at day 1 of each cycle.
Descriptive statistics were provided for selected demographics, safety, and PK data, with all statistical summaries and analyses performed in SAS^Ⓡ version 9.1 or higher (SAS Institute Inc., Cary, NC). The primary PK analyses and other PK parameters were performed using the PK-evaluable population. Plasma PK parameters of carfilzomib and metabolites were computed in Phoenix WinNonlin^Ⓡ Enterprise version 5.2 or higher. To assess the effect of ESRD relative to normal renal function on PK parameters (AUC0−last and AUC0−inf), an analysis of variance (ANOVA) of the ln-transformed plasma PK parameters was performed, with renal impairment as a fixed effect. […]

[2] = system: patients with relapsed multiple myeloma; experiment: Safety: adverse events (NCI CTCAE v4.03), discontinuations, deaths; type: in vivo, human; conditions: for treatment discontinuation due to disease progression: as of data cutoff
Experimental: as §2, §3
(§4) Safety was assessed for patients who received ≥1 dose of carfilzomib. AEs were graded using the National Cancer Institute Common Terminology Criteria for Adverse Events version 4.03 and mapped to preferred term and system organ class using the Medical Dictionary for Regulatory Activities (MedDRA). ORR defined as the proportion of patients for whom the best overall response was stringent complete response, complete response, very good PR, or PR, along with the associated 95% exact binomial CI (Clopper–Pearson method) was determined. CBR, defined as the proportion of patients with the best overall response of MR or better, was likewise determined along with the 95% exact binomial CI.

[3] = system: patients with relapsed multiple myeloma; experiment: Best overall response as determined by investigator (IMWG / EBMT criteria), DOR and PFS; type: in vivo, human; conditions: for Best overall response: Minimal response / Best overall response: Complete response / Best overall response: Not evaluable / Best overall response: Partial response / Best overall response: Progressive disease / Best overall response: Stable disease / Best overall response: Stringent complete response / Best overall response: Very good partial response / Clinical benefit rate (95% CI), minimal response or better / Overall response rate (95% CI), partial response or better: response-evaluable, carfilzomib 20/27/56 mg/m^2 IV; for Best overall response: Minimal response: EBMT criteria
Experimental: as §1, §2, §3, §4

[4] = cited from earlier work
Description: Carfilzomib, an epoxyketone proteasome inhibitor, is approved in the United States (US), Canada, Australia, European Union (EU), and other jurisdictions for the treatment of relapsed or refractory multiple myeloma. […] Following intravenous (IV) administration, carfilzomib is rapidly and extensively metabolized in patients with multiple myeloma or solid tumors. Similar to the metabolic profile in rats and monkeys, ...

[5] = system: relapsed multiple myeloma; conditions: carfilzomib 56 mg/m^2 infused for 30 min with or without dexamethasone, cited from earlier work
Experimental: The 50% ORR in the overall population was similar to those previously reported in trials of carfilzomib 56 mg/m^2 infused for 30 min with or without dexamethasone for relapsed multiple myeloma (50% in a phase I trial and 55% in a phase II trial). Together, the results of this study support current recommendations for carfilzomib that no starting dose adjustment is warranted for patients with baseline renal impairment including those with ESRD [8, 20].

[6] = total efficacy-evaluable population

CC(C)C[C@H](NC(=O)[C@H](CCc1ccccc1)NC(=O)CN1CCOCC1)C(=O)N[C@@H](Cc1ccccc1)C(=O)N[C@@H](CC(C)C)C(=O)[C@@]1(C)CO1 [carfilzomib]
AUC0−inf Geo mean ratio (90% CI), ESRD vs normal renal function ([1]; 27 mg/m^2): 138.09 (102.77–185.54) % | AUC0−last Geo mean ratio (90% CI), ESRD vs normal renal function ([1]; 27 mg/m^2): 139.72 (112.41–173.66) % | AUC0−inf Geo mean ratio (90% CI), ESRD vs normal renal function ([1]; 56 mg/m^2, cycle 2 day 1): 133.62 (70.93–251.73) % | AUC0−last Geo mean ratio (90% CI), ESRD vs normal renal function ([1]; 56 mg/m^2, cycle 2 day 1): 132.75 (70.60–249.63) % | change in mean AUC0−last and C max between 27 and 56 mg/m^2 ([1]; in vivo): dose-dependent increase | concentration decline in the first 15 min following the end of the infusion ([1]; in vivo): two orders of magnitude | mean terminal t 1/2 ([1]; in vivo): 24 to 72 min | time of peak concentrations after start of infusion ([1]; in vivo, iv): approximately 0.5 h | treatment discontinuation due to disease progression ([2]; ESRD): 36% | patients with treatment-related AEs that led to study discontinuation ([2]; in vivo): Four | treatment discontinuation due to disease progression ([2]; normal renal function): 20% | patients who died during the study ([2]; total, none considered related to carfilzomib treatment): Five | patients with a PFS of ≥6 months ([3]; ESRD): 4 of 10 | Best overall response: Minimal response ([3]; ESRD, n = 10): 0 (0.0) n (%) | Best overall response: Complete response ([3]; ESRD, n = 10): 0 (0.0) n (%) | Best overall response: Not evaluable ([3]; ESRD, n = 10): 0 (0.0) n (%) | Best overall response: Partial response ([3]; ESRD, n = 10): 5 (50.0) n (%) | Best overall response: Progressive disease ([3]; ESRD, n = 10): 2 (20.0) n (%) | Best overall response: Stable disease ([3]; ESRD, n = 10): 2 (20.0) n (%) | Best overall response: Stringent complete response ([3]; ESRD, n = 10): 0 (0.0) n (%) | Best overall response: Very good partial response ([3]; ESRD, n = 10): 1 (10.0) n (%) | Clinical benefit rate (95% CI), minimal response or better ([3]; ESRD, n = 10): 60.0 (26.2–87.8) % | Overall response rate (95% CI), partial response or better ([3]; ESRD, n = 10): 60.0 (26.2–87.8) % | patients with a PFS of ≥6 months ([3]; normal renal function): 6 of 14 | Best overall response: Minimal response ([3]; normal renal function, n = 14): 1 (7.1) n (%) | Best overall response: Complete response ([3]; normal renal function, n = 14): 0 (0.0) n (%) | Best overall response: Partial response ([3]; normal renal function, n = 14): 3 (21.4) n (%) | Best overall response: Progressive disease ([3]; normal renal function, n = 14): 2 (14.3) n (%) | Best overall response: Stable disease ([3]; normal renal function, n = 14): 3 (21.4) n (%) | Best overall response: Stringent complete response ([3]; normal renal function, n = 14): 0 (0.0) n (%) | Best overall response: Very good partial response ([3]; normal renal function, n = 14): 3 (21.4) n (%) | Clinical benefit rate (95% CI), minimal response or better ([3]; normal renal function, n = 14): 50.0 (23.0–77.0) % | Overall response rate (95% CI), partial response or better ([3]; normal renal function, n = 14): 42.9 (17.7–71.1) % | patients with a PFS >12 months [3, 6]: 4 patients | patients with a PFS of ≥6 months [3, 6]: Ten | Best overall response: Minimal response ([3]; total, n = 24): 1 (4.2) n (%) | Best overall response: Complete response ([3]; total, n = 24): 0 (0.0) n (%) | Best overall response: Not evaluable ([3]; total, n = 24): 2 (8.3) n (%) | Best overall response: Partial response ([3]; total, n = 24): 8 (33.3) n (%) | Best overall response: Progressive disease ([3]; total, n = 24): 4 (16.7) n (%) | Best overall response: Stable disease ([3]; total, n = 24): 5 (20.8) n (%) | Best overall response: Stringent complete response ([3]; total, n = 24): 0 (0.0) n (%) | Best overall response: Very good partial response ([3]; total, n = 24): 4 (16.7) n (%) | Clinical benefit rate (95% CI), minimal response or better ([3]; total, n = 24): 54.2 (32.8–74.4) % | Overall response rate (95% CI), partial response or better ([3]; total, n = 24): 50.0 (29.1–70.9) % | half-life ([4]; IV administration at doses from 15 to 56 mg/m^2, patients): ≤ 60 min | dose excreted via urinary metabolites ([4]; within 24 h): approximately 25% | urinary and fecal excretion of the parent compound ([4]; within 24 h): 0.3 % of the total dose | ORR ([5]; phase I trial): 50% | ORR ([5]; phase II trial): 55%
